In ChEMBL document CHEMBL1154631 (Bioorg Med Chem Lett, 2009):
pKi: −log10 of the molar value.

Tests used:
Mu-type opioid receptor = Mu-type opioid receptor (Homo sapiens, UniProt P35372)
Adenosine receptor A1 = molecular target: T1, Adenosine receptor A1 (Homo sapiens, UniProt P30542); assay: Binding affinity to adenosine receptor A1
T1 sequence (P30542 whole entry): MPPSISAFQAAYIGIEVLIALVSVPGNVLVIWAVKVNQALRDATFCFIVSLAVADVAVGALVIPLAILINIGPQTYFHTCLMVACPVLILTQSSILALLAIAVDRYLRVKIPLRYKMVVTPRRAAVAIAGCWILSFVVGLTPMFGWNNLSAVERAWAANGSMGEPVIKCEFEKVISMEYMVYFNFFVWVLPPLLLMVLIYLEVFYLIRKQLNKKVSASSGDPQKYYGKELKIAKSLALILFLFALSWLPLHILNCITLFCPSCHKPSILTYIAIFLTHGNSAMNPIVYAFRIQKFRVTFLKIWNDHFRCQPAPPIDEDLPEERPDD

Mu-type opioid receptor, sequence (P35372 whole entry): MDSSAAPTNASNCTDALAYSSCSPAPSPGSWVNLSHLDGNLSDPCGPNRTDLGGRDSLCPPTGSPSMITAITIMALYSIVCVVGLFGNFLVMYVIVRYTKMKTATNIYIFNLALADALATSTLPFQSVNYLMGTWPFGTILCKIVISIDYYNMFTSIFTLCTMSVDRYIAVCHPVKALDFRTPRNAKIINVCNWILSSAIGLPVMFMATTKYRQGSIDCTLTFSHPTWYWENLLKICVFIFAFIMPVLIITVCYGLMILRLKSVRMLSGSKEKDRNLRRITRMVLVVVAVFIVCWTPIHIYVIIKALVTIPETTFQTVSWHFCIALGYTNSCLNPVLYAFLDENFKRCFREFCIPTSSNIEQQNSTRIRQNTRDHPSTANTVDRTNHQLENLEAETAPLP

CCCn1c(=O)c2[nH]c(C3CCCC3)nc2n(CCC)c1=O [1,3-DIPROPYL-8-CYCLOPENTYLXANTHINE [DPCPX]]
pKi (Mu-type opioid receptor): < 4.00

C[C@@H](NC(=O)[C@@H](N)Cc1ccc(O)cc1)C(=O)NCC(=O)N(C)[C@@H](Cc1ccccc1)C(=O)NCCO [DAMGO]
pKi (Adenosine receptor A1): < 4.00

C=CCN1CC[C@]23c4c5ccc(O)c4O[C@H]2C(=O)CC[C@@]3(O)[C@H]1C5 [NALOXONE]
pKi (Adenosine receptor A1): < 4.30
